Data reported in ChEMBL document CHEMBL5113398, “Design and synthesis of new quinoline derivatives as selective C-RAF kinase inhibitors with potent anticancer activity” (Eur J Med Chem, 2022).
pIC50: −log10 of the molar value.

Legend:
HCT-116 = test: Anticancer activity against human HCT-116 cells assessed as cell growth inhibition incubated for 48 hrs by SRB assay; assay type: functional
HT-29 = test: Anticancer activity against human HT-29 cells assessed as total cell growth inhibition incubated for 48 hrs by SRB assay; assay type: functional
SNB-75 = test: Anticancer activity against human SNB-75 cells assessed as total cell growth inhibition incubated for 48 hrs by SRB assay; assay type: functional
DU-145 = test: Anticancer activity against human DU-145 cells assessed as total cell growth inhibition incubated for 48 hrs by SRB assay; assay type: functional
SK-MEL-28 = test: Anticancer activity against human SK-MEL-28 cells assessed as cell growth inhibition incubated for 48 hrs by SRB assay; assay type: functional
[1] = target: Vascular endothelial growth factor receptor 2 (Homo sapiens) (UniProt P35968); test: Inhibition of VEGFR2 (unknown origin) at 1 uM in presence of ATP by hotspot kinase assay
OVCAR-5 = test: Anticancer activity against human OVCAR-5 cells assessed as cell growth inhibition incubated for 48 hrs by SRB assay; assay type: functional
MDA-MB-468 = test: Anticancer activity against human MDA-MB-468 cells assessed as total cell growth inhibition incubated for 48 hrs by SRB assay; assay type: functional
[2] = target: Epidermal growth factor receptor (Homo sapiens) (UniProt P00533); test: Inhibition of EGFR (unknown origin) at 1 uM in presence of ATP by hotspot kinase assay
SF-268 = test: Anticancer activity against human SF-268 cells assessed as total cell growth inhibition incubated for 48 hrs by SRB assay; assay type: functional
SN12C = test: Anticancer activity against human SN12C cells assessed as total cell growth inhibition incubated for 48 hrs by SRB assay; assay type: functional
BT-549 = test: Anticancer activity against human BT-549 cells assessed as cell growth inhibition incubated for 48 hrs by SRB assay; assay type: functional
LOX IMVI = test: Anticancer activity against human LOX IMVI cells assessed as total cell growth inhibition incubated for 48 hrs by SRB assay; assay type: functional
SK-MEL-5 [3] = test: Anticancer activity against human SK-MEL-5 cells assessed as cell growth inhibition incubated for 48 hrs by SRB assay; assay type: functional
EKVX = test: Anticancer activity against human EKVX cells assessed as cell growth inhibition incubated for 48 hrs by SRB assay; assay type: functional
[4] = target: Platelet-derived growth factor receptor alpha (Homo sapiens) (UniProt P16234); test: Inhibition of PDGFRalpha (unknown origin) at 1 uM in presence of ATP by hotspot kinase assay
TK-10 = test: Anticancer activity against human TK-10 cells assessed as cell growth inhibition incubated for 48 hrs by SRB assay; assay type: functional
T47D [5] = test: Anticancer activity against human T47D cells assessed as cell growth inhibition incubated for 48 hrs by SRB assay; assay type: functional
T47D [6] = test: Anticancer activity against human T47D cells assessed as total cell growth inhibition incubated for 48 hrs by SRB assay; assay type: functional
[7] = Cytotoxicity against human WI-38 cells assessed as cell growth inhibition incubated for 48 hrs by SRB assay; assay type: toxicity, cell-based
Homo sapiens = species: Homo sapiens; test: Inhibition of ABL (unknown origin) at 1 uM in presence of ATP by hotspot kinase assay
OVCAR-8 = test: Anticancer activity against human OVCAR-8 cells assessed as total cell growth inhibition incubated for 48 hrs by SRB assay; assay type: functional
[8] = target: Serine/threonine-protein kinase B-raf (Homo sapiens) (UniProt P15056); test: Inhibition of wild type B-RAF (unknown origin) at 1 uM in presence of ATP by hotspot kinase assay
UACC-62 = test: Anticancer activity against human UACC-62 cells assessed as total cell growth inhibition incubated for 48 hrs by SRB assay; assay type: functional
SK-MEL-5 [9] = test: Anticancer activity against human SK-MEL-5 cells assessed as total cell growth inhibition incubated for 48 hrs by SRB assay; assay type: functional
HOP-92 = test: Anticancer activity against human HOP-92 cells assessed as cell growth inhibition incubated for 48 hrs by SRB assay; assay type: functional
UACC-257 = test: Anticancer activity against human UACC-257 cells assessed as cell growth inhibition incubated for 48 hrs by SRB assay; assay type: functional
Malme-3M = test: Anticancer activity against human Malme-3M cells assessed as cell growth inhibition incubated for 48 hrs by SRB assay; assay type: functional
MDA-MB-435 = test: Anticancer activity against human MDA-MB-435 cells assessed as cell growth inhibition incubated for 48 hrs by SRB assay; assay type: functional
NCI-H322M = test: Anticancer activity against human NCI-H322M cells assessed as cell growth inhibition incubated for 48 hrs by SRB assay; assay type: functional
NCI-H522 = test: Anticancer activity against human NCI-H522 cells assessed as total cell growth inhibition incubated for 48 hrs by SRB assay; assay type: functional
CCRF-CEM = test: Anticancer activity against human CCRF-CEM cells assessed as total cell growth inhibition incubated for 48 hrs by SRB assay; assay type: functional
UO-31 = test: Anticancer activity against human UO-31 cells assessed as total cell growth inhibition incubated for 48 hrs by SRB assay; assay type: functional
KM12 = test: Anticancer activity against human KM12 cells assessed as cell growth inhibition incubated for 48 hrs by SRB assay; assay type: functional
[10] = target: RAF proto-oncogene serine/threonine-protein kinase (Homo sapiens, UniProt P04049); test: Inhibition of c-Raf (unknown origin) in presence of ATP by hotspot kinase assay
[11] = n-Octanol/PBS partition coefficient, logD of the compound at pH 7.4; assay type: physicochemical
[12] = target: Serine/threonine-protein kinase A-Raf (Homo sapiens) (UniProt P10398); test: Inhibition of A-Raf (unknown origin) at 1 uM in presence of ATP by hotspot kinase assay
RPMI-8226 [13] = test: Induction of necrosis in human RPMI-8226 cells assessed as LDH release at 1.68 uM; assay type: functional
[14] = Apparent permeability across apical to basolateral side in human Caco-2 cells assessed as drug recovery at pH 6.5 to 7.4; assay type: ADME, cell-based; details: Caco-2, pH 6.5, read-out: Drug recovery
RPMI-8226 [15] = test: Induction of necrosis in human RPMI-8226 cells assessed as LDH release at 0.84 uM; assay type: functional
[16] = Apparent permeability of the compound from apical to basolateral side in human Caco-2 cells at pH 6.5 to 7.4; assay type: ADME, cell-based; details: Caco-2, pH 6.5
RPMI-8226 [17] = test: Induction of necrosis in human RPMI-8226 cells assessed as LDH release at 2.12 uM; assay type: functional
RPMI-8226 [18] = test: Induction of apoptosis in human RPMI-8226 assessed as fold increase in caspase-3/7 activity at 2.12 uM; assay type: functional
RPMI-8226 [19] = test: Induction of apoptosis in human RPMI-8226 assessed as fold increase in caspase-3/7 activity at 1.68 uM; assay type: functional
RPMI-8226 [20] = test: Induction of apoptosis in human RPMI-8226 assessed as fold increase in caspase-3/7 activity at 0.84 uM; assay type: functional

Platelet-derived growth factor receptor alpha (Homo sapiens), sequence (P16234 whole entry): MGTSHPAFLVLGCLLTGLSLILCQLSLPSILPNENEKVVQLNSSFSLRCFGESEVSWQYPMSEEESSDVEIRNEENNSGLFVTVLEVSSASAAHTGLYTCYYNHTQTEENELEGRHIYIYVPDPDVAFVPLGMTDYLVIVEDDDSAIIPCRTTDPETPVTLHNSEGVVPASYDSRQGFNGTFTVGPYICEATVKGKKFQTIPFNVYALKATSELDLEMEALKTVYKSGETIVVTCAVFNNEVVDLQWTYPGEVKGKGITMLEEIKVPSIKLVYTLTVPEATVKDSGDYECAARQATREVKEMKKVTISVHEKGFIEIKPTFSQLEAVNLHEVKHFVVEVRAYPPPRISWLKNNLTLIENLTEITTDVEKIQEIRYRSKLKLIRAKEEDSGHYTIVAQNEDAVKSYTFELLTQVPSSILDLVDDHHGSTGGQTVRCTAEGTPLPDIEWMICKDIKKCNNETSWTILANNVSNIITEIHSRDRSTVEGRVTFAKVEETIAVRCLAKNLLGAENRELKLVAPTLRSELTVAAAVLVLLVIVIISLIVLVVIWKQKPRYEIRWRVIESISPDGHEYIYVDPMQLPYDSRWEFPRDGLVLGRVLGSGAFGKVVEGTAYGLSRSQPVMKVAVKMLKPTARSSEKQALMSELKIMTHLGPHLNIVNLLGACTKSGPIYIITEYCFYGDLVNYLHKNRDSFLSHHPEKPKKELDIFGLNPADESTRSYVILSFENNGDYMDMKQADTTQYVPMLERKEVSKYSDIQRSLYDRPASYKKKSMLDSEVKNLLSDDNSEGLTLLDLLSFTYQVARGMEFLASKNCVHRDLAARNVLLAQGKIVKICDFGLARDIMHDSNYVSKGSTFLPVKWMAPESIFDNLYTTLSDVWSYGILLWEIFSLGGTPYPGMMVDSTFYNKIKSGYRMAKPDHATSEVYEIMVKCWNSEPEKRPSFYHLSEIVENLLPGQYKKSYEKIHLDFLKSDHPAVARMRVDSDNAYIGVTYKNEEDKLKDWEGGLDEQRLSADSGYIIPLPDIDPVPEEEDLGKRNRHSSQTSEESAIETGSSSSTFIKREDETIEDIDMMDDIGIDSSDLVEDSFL
RAF proto-oncogene serine/threonine-protein kinase, sequence (P04049 whole entry): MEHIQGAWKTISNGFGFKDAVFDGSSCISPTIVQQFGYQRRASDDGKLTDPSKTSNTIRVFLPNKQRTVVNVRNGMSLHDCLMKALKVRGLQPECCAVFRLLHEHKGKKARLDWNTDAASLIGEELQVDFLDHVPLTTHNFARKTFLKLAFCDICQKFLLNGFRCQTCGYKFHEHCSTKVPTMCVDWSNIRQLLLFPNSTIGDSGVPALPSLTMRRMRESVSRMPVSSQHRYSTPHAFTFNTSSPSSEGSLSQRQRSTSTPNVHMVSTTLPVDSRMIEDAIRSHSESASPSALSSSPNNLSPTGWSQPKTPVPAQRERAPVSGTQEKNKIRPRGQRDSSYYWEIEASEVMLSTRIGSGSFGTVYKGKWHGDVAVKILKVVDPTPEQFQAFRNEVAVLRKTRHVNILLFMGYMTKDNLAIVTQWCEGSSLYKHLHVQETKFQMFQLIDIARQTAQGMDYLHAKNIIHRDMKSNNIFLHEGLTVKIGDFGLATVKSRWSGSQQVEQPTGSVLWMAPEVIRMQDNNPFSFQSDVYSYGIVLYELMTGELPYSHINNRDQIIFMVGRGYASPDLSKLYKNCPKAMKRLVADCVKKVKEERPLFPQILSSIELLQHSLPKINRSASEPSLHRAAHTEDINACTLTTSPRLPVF
Vascular endothelial growth factor receptor 2 (Homo sapiens), sequence (P35968 whole entry): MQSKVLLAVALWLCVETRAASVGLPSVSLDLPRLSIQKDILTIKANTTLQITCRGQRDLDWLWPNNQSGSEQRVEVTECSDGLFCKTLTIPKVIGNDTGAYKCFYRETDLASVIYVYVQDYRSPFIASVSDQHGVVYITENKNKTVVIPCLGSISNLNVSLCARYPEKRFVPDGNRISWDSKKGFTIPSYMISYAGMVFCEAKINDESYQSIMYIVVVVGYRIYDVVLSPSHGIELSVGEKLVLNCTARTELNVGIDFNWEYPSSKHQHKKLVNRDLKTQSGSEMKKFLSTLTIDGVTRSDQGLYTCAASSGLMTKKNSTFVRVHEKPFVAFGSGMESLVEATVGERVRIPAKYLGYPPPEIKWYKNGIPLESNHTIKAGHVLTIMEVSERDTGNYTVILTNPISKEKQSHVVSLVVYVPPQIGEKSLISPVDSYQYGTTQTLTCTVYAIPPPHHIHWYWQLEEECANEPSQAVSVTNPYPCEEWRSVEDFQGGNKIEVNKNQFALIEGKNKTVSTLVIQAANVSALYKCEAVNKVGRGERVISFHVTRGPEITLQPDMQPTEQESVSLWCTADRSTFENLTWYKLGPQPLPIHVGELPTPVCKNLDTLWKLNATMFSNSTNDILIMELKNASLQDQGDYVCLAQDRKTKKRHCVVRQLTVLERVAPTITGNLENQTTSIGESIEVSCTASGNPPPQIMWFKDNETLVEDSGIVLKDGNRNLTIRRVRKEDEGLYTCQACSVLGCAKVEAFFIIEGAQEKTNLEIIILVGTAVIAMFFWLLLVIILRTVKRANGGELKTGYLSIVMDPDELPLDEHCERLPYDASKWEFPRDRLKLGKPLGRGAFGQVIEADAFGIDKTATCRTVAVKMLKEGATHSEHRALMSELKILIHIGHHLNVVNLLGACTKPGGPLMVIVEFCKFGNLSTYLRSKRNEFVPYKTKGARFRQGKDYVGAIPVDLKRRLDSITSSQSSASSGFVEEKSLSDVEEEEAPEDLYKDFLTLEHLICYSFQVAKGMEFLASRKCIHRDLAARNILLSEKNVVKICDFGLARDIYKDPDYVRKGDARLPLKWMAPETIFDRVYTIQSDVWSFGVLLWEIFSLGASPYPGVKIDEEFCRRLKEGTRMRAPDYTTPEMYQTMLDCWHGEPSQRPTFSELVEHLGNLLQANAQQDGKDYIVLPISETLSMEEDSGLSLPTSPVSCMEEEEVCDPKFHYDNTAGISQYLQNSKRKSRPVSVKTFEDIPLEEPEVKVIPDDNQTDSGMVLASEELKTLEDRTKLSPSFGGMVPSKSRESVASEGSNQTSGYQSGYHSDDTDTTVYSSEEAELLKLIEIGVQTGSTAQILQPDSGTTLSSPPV
Epidermal growth factor receptor (Homo sapiens), sequence (P00533 whole entry): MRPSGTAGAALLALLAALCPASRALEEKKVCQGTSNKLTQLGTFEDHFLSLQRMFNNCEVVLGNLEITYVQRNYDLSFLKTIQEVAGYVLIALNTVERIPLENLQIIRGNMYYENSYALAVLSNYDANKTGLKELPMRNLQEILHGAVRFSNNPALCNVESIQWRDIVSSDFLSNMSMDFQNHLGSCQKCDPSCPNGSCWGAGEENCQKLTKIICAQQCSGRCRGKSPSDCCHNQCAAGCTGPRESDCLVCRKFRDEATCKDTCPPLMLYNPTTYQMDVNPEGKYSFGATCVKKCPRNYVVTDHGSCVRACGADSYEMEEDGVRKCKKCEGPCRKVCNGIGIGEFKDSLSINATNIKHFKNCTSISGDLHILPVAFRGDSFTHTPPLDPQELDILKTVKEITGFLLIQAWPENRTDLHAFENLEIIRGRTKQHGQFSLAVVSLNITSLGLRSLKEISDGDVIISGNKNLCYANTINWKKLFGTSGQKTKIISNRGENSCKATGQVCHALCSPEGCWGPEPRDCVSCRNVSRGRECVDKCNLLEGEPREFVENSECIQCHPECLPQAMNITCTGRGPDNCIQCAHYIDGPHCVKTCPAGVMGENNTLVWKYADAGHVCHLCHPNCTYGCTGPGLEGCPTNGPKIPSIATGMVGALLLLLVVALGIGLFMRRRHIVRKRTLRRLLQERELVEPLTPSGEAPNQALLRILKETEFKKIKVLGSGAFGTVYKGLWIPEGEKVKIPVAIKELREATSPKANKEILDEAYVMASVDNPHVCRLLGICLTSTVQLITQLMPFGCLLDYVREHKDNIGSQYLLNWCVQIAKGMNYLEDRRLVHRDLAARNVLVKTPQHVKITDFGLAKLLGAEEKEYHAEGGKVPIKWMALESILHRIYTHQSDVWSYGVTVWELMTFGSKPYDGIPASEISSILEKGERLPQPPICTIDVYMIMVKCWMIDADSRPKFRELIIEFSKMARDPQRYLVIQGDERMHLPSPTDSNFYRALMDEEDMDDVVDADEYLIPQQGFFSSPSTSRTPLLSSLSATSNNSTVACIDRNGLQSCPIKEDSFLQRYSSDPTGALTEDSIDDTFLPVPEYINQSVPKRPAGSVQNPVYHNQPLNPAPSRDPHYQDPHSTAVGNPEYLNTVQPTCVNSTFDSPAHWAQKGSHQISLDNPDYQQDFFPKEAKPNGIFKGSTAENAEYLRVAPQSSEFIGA
Serine/threonine-protein kinase B-raf (Homo sapiens), sequence (P15056 whole entry): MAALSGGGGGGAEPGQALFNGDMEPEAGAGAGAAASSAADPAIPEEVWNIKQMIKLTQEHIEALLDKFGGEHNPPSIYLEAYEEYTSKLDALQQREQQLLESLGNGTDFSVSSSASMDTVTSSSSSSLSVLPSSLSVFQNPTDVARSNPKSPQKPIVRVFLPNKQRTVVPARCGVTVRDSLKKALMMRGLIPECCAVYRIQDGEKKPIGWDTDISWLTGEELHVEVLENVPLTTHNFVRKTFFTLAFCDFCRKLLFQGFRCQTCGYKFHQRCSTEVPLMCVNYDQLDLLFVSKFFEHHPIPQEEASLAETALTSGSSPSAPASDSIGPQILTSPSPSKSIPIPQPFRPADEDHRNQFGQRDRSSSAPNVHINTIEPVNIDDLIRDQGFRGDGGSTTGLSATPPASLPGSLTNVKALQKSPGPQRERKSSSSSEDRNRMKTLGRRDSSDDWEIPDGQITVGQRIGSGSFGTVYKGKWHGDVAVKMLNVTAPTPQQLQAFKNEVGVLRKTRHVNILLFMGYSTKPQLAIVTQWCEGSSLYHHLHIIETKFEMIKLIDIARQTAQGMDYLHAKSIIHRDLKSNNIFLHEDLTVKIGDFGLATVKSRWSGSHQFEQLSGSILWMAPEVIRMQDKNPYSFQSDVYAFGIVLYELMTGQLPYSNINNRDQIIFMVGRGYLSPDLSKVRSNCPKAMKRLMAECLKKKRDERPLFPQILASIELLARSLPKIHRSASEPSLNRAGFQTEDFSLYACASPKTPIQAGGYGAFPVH

Work on COc1cc2cc(Oc3ccc(NC(=O)Nc4ccc(F)c(C(F)(F)F)c4)cc3)c(C)nc2cc1OCCN1CCOCC1 yielded a GI50 (HCT-116) of 1.11 µM, a TGI (HT-29) of 21.8 µM and a TGI (SNB-75) of 7.45 µM. For the same compound, the TGI (DU-145) was 15.2 µM, the GI50 (SK-MEL-28) was 1.62 µM and the inhibition [1] was -5.85%. The GI50 (OVCAR-5) was 5.11 µM, the TGI (MDA-MB-468) was 10.4 µM and the inhibition [2] was 1.43%. The TGI (SF-268) was 19.8 µM, the TGI (SN12C) was 15.5 µM and the GI50 (BT-549) was 2.44 µM. It also gave a TGI (LOX IMVI) of 2.86 µM, a GI50 (SK-MEL-5 [3]) of 1.14 µM and a GI50 (EKVX) of 2.53 µM. The inhibition [4] was 18.3%, the GI50 (TK-10) was 4.94 µM and the GI50 (T47D [5]) was 1.91 µM. It also gave a TGI (T47D [6]) of 32.1 µM, a GI50 at 48 h [7] greater than 20 µM and an inhibition (Homo sapiens) of -0.53%. For the same compound, the TGI (OVCAR-8) was greater than 100 µM, the inhibition [8] was 23.7% and the TGI (UACC-62) was 4.24 µM. The TGI (SK-MEL-5 [9]) was 2.36 µM, the GI50 (HOP-92) was 1.31 µM and the GI50 (UACC-257) was 1.75 µM. It also gave a GI50 (Malme-3M) of 1.57 µM, a GI50 (MDA-MB-435) of 1.91 µM and a GI50 (NCI-H322M) of 3.37 µM. The TGI (NCI-H522) was 9.43 µM, the TGI (CCRF-CEM) was 11.5 µM and the TGI (UO-31) was 10.6 µM. The GI50 (KM12) was 2.69 µM, the pIC50 [10] was 7.17 and the logD [11] was 2.54.
Work on COc1cc2cc(Oc3ccc(NC(=O)Nc4ccc(Cl)c(C(F)(F)F)c4)cc3)c(C)nc2cc1OCCN1CCOCC1 yielded a GI50 (HCT-116) of 10.8 µM, a TGI (HT-29) of 11.2 µM and a TGI (SNB-75) of 7.05 µM. The TGI (DU-145) was 13.8 µM, the GI50 (SK-MEL-28) was 1.55 µM and the inhibition [1] was 2.32%. The GI50 (OVCAR-5) was 4.02 µM, the TGI (MDA-MB-468) was 2.06 µM and the inhibition [2] was -2.4%. It also gave a TGI (SF-268) of 8.44 µM, a TGI (SN12C) of 56.2 µM and a GI50 (BT-549) of 2.63 µM. It also gave a TGI (LOX IMVI) of 2.81 µM, a GI50 (SK-MEL-5 [3]) of 1.15 µM and a GI50 (EKVX) of 2.07 µM. The inhibition [4] was 23.2%, the GI50 (TK-10) was 4.97 µM and the GI50 (T47D [5]) was 1.32 µM. The TGI (T47D [6]) was 5.2 µM, the inhibition [12] was -6.33% and the GI50 at 48 h [7] was greater than 20 µM. The inhibition (Homo sapiens) was -5.6%, the TGI (OVCAR-8) was greater than 100 µM and the inhibition [8] was 31.6%. For the same compound, the TGI (UACC-62) was 3.46 µM, the TGI (SK-MEL-5 [9]) was 2.37 µM and the GI50 (HOP-92) was 1.66 µM. The GI50 (UACC-257) was 1.57 µM, the GI50 (Malme-3M) was 1.52 µM and the GI50 (MDA-MB-435) was 1.94 µM. It also gave a GI50 (NCI-H322M) of 2.82 µM, a TGI (NCI-H522) of 4.07 µM and a TGI (CCRF-CEM) greater than 100 µM. For the same compound, the TGI (UO-31) was 3.34 µM, the GI50 (KM12) was 5.3 µM and the pIC50 [10] was 7.09. It also gave a logD [11] of 2.73.
COc1cc2cc(Oc3ccc(NC(=O)Nc4cc(C(F)(F)F)cc(C(F)(F)F)c4)cc3)c(C)nc2cc1OCCN1CCOCC1 showed an Activity (RPMI-8226 [13]) of 23.4%, a GI50 (HCT-116) of 1.42 µM and a TGI (HT-29) of 7.14 µM. For the same compound, the TGI (SNB-75) was 4.48 µM, the TGI (DU-145) was 7.05 µM and the GI50 (SK-MEL-28) was 1.8 µM. The inhibition [1] was 6.34%, the GI50 (OVCAR-5) was 2.18 µM and the TGI (MDA-MB-468) was 3.76 µM. It also gave an inhibition [2] of 3.62%, a TGI (SF-268) of 8.06 µM and a TGI (SN12C) of 5.48 µM. It also gave a GI50 (BT-549) of 1.87 µM, a TGI (LOX IMVI) of 5.09 µM and a recovery [14] of 74%. It also gave a GI50 (SK-MEL-5 [3]) of 0.89 µM, an Activity (RPMI-8226 [15]) of 9.5% and a GI50 (EKVX) of 1.64 µM. It also gave an inhibition [4] of 26.9%, a Papp A→B [16] of 0.4 ×10⁻⁶ cm/s and an Activity (RPMI-8226 [17]) of 31.65%. For the same compound, the GI50 (TK-10) was 3.7 µM, the “fold change (FC)” value (RPMI-8226 [18]) was 2.84 and the “fold change (FC)” value (RPMI-8226 [19]) was 2.68. For the same compound, the GI50 (T47D [5]) was 2.04 µM, the TGI (T47D [6]) was 10.2 µM and the inhibition [12] was 1.23%. The GI50 at 48 h [7] was greater than 20 µM, the inhibition (Homo sapiens) was -2.3% and the TGI (OVCAR-8) was 12.8 µM. For the same compound, the inhibition [8] was 26.5%, the TGI (UACC-62) was 6.9 µM and the TGI (SK-MEL-5 [9]) was 1.66 µM. For the same compound, the “fold change (FC)” value (RPMI-8226 [20]) was 1.97, the GI50 (HOP-92) was 0.9 µM and the GI50 (UACC-257) was 1.4 µM. It also gave a GI50 (Malme-3M) of 1.2 µM, a GI50 (MDA-MB-435) of 1.9 µM and a GI50 (NCI-H322M) of 1.82 µM. It also gave a TGI (NCI-H522) of 7.29 µM, a TGI (CCRF-CEM) of 6.57 µM and a TGI (UO-31) of 4.06 µM. For the same compound, the GI50 (KM12) was 1.53 µM, the pIC50 [10] was 6.71 and the logD [11] was 2.91.
